Reference: patent US10793885B2, “Compositions and methods for making noscapine and synthesis intermediates thereof” (priority 2013, dated 2020)

How the values were obtained:
CYP82X2 = biological target: T1, CYP82X2 (UniProt D5J9U8+I3PLR0); assay: In vitro enzyme assay with yeast microsomal fractions containing CYP82X2 (CPR/82X2); type: biochemical, Papaver somniferum; details: yeast microsomes (CPR/82X2), extracted ion chromatograms, FIG. 13
T1 construct: the full-length coding regions of CYP82X1 and CYP82X2 were inserted into the NotI and SpeI restriction sites; FLAG; made in house; host or cells: Saccharomyces cerevisiae YPL 154C:Pep4, microsomal fraction
T1 sequence (D5J9U8+I3PLR0 with tags, fused parts or gaps): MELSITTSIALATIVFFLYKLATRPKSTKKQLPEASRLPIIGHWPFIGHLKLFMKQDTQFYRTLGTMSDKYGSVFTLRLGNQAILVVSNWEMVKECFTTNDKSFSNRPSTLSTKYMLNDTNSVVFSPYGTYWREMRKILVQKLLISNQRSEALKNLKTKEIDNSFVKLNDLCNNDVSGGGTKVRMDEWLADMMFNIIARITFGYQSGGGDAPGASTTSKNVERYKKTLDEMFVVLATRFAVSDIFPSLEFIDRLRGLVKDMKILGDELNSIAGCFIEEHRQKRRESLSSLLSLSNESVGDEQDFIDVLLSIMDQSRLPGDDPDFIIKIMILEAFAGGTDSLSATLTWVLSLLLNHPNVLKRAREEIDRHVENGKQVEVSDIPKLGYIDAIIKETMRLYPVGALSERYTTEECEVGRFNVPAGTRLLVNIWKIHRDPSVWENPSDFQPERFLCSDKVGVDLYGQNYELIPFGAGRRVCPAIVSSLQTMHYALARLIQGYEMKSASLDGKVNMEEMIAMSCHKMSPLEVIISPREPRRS
Description: (§1) The full-length coding region of CYP82X1 was amplified using cDNA derived from total stem RNA of the Bea's Choice chemotype using Takara Ex Taq DNA polymerase (Fisher Scientific, Ottawa, Canada), and using a primer 5′-[…]-3′ (SEQ ID NO: 607) and reverse primer 5′-[…]-3′ (SEQ ID NO: 608). Owing to problems with heterologous expression in yeast, CYP82X2 was synthesized with the first 60 N-terminal amino acids replaced with the first 43 N-terminal amino acids from the lettuce cytochrome P450 germacrene A oxidase Nguyen, D. T. et al. J. Biol. Chem. 285, 16588-16598 (2010). For heterologous expression of Flag-tagged CYPs in yeast (Saccharomyces cerevisiae), the full-length coding regions of CYP82X1 and CYP82X2 were inserted into the NotI and SpeI restriction sites of the dual plasmid pESC-leu2d::CPR Ro, D.-K., Ouellet, M., Paradise, E. M., Burd, H., Eng, D., Paddon, C. J., Newman, J. D., & Keesling, J. D. BMC Biotech. 8, 83 (2008) yielding pESC-Leu2d::CYP82X1/CPR and pESC-Leu2d::CYP82X2/CPR. The protease-deficient yeast strain YPL 154C:Pep4 was transformed with pESC-Leu2d::CYP82X1/CPR and pESC-Leu2d::CYP82X2/CPR. Yeast culture, microsome preparation, and immunoblot analysis were performed as described previously Dang, T.-T. T. & Facchini, P. J. J. Biol. Chem. 289, 2013-2026 (2014). For heterologous expression of CXE1, CXE2, and AT1, corresponding open reading frames were amplified using cDNA derived from total stem RNA of the Bea's Choice chemotype and cloned in-frame an N-terminal His-tag sequence in the Escherichia coli expression vector pRSETA (Invitrogen, Carlsbad, Calif.). CXE1 and CXE2 were individually inserted into the SacI and HindIII restriction sties, whereas AT1 was inserted into the KpnI and HindIII sites, of pRSETA using a primer 5′-[…]-3′ (SEQ ID NO: 609) and reverse primer 5′-[…]-3′ (SEQ ID NO: 610). […] Microsomal fractions containing recombinant CYP82X1 or CYP82X2 were detected using a-FLAG antibodies, whereas recombinant CPR was detected using α-c-Myc antibodies (FIG. 12 A). […]

CYP82X1 = biological target: T2, CYP82X1 (Papaver somniferum, UniProt I3V6B7); assay: In vitro enzyme assay with yeast microsomal fractions containing CYP82X1 (CPR/82X1); type: biochemical; details: yeast microsomes (CPR/82X1), extracted ion chromatograms, FIG. 13
T2 construct: The full-length coding region of CYP82X1 was amplified using cDNA derived from total stem RNA of the Bea's Choice chemotype; FLAG; made in house; host or cells: Saccharomyces cerevisiae YPL 154C:Pep4, microsomal fraction
T2 sequence (I3V6B7 1-540): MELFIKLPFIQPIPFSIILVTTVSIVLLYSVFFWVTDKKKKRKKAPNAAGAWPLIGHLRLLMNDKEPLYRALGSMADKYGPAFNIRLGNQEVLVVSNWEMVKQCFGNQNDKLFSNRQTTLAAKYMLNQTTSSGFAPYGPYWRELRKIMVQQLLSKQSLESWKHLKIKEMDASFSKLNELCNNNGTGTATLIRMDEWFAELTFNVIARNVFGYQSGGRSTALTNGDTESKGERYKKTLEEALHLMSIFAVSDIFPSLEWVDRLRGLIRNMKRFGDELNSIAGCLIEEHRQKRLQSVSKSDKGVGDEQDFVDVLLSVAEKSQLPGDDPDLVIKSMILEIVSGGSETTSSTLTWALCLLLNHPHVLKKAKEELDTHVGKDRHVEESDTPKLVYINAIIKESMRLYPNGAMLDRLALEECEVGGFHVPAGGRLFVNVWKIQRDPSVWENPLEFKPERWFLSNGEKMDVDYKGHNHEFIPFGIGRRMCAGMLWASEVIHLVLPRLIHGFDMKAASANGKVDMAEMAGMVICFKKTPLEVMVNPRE
Description: as §1

CYP82Y1 = CYP82Y1 (Papaver somniferum, UniProt I3PLR1, R101S); details: yeast microsomes, 500 μM NADPH, pH 7.5, 30° C.
CYP82Y1, sequence (I3PLR1 whole entry R101S): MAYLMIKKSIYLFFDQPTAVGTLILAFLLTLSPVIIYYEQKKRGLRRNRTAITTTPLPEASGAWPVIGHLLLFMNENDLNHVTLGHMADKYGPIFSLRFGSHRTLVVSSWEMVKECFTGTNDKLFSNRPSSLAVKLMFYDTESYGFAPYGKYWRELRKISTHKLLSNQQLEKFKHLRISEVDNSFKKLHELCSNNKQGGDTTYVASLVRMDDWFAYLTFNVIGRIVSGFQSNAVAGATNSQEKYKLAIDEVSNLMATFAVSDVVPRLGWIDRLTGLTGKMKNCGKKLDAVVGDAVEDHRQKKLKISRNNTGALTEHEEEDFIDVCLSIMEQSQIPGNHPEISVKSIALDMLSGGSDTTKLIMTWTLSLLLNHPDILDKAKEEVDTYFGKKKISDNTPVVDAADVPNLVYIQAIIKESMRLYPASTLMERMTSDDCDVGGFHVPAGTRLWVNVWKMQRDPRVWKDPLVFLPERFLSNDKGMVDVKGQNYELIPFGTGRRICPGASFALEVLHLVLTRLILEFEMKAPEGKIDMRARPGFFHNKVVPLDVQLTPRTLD

NOS = biological target: T3, NOS (Papaver somniferum, UniProt I3PLR3); type: biochemical, opium poppy (Papaver somniferum); details: for Km: cofactor of NOS for the conversion of narcotine hemiacetal to noscapine; for acceptance as substrate / conversion by NOS: recombinant NOS, product detection by LC-MS/MS
T3 construct: His-tag (pRSETA leader) (N); made in house; host or cells: Escherichia coli Rosetta (DE3) pLysS
T3 sequence (I3PLR3 1-348): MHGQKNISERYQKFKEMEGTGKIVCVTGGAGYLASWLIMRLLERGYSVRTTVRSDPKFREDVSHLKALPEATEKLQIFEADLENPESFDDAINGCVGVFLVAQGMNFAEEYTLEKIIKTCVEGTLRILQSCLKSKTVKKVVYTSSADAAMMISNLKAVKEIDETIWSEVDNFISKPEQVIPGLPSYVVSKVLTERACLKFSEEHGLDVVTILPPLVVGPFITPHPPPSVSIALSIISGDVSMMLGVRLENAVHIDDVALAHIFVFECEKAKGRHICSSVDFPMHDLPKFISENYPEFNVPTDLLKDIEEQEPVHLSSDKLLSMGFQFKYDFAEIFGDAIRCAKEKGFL
Description: The full-length cDNA sequence of CL1327Contig1 (see: Example 2) was cloned into vector pRSETA in-frame with an N-terminal His-tag and expressed in E. coli as follows. The NOS coding region was amplified from opium poppy stem cDNA using the following primer set: 5′-[…]-3′ (SEQ ID NO: 601) and 5′-[…]-3′ (SEQ ID NO: 602). The NOS cDNA was cloned into the expression vector pRSETA (Invitrogen) at the SacI and KpnI restriction sites in frame with an N-terminal His-tag sequence. The expression construct was transformed into Escherichia coli strain Rosetta (DE3) pLysS (EMD Chemicals, Darmstadt, Germany). Expression of the recombinant gene was induced overnight with 1 mM isopropyl β-D-thiogalactoside (IPTG) at room temperature. Cells were harvested by centrifugation and sonicated in a buffer containing 50 mM sodium phosphate, pH 7.0, 300 mM NaCl, and 10 mM β-mercaptoethanol. After centrifugation at 20,000 g for 10 min, the supernatant was loaded onto Talon cobalt affinity resin (Clontech, Mountain View, Calif.). Purification was performed according to the manufacturer's instruction. The purified, recombinant protein was desalted using an Amicon centrifugal filter −30K (Millipore, Billerica, Mass.) and stored in a buffer containing 50 mM Tris-HCl, pH 8.0, 1 mM EDTA, 1 mM β-mercaptoethanol, and 10% (v/v) glycerol. Protein concentration was determined by the Bradford assay (Bio-Rad, Hercules, Calif.) using bovine serum albumin as the standard.
The purified recombinant NOS enzyme (see: Example 4) was assayed using either narcotine hemiacetal as the substrate (in the presence of either NAD^+ or NADP^+ as cofactor) for dehydrogenase activity, or with noscapine as the substrate (in the presence of NADH or NADPH as the cofactor) for reductase activity. LC-MS/MS was used to identify and quantify product formation (FIG. 7). […] LC-MS/MS and CID spec
In addition to narcotine hemiacetal and noscapine, NOS was also assayed with several other BIAs that could potentially serve as substrates for dehydrogenase/reductase reactions.

COc1ccc2c(c1OC)C[N+]1(C)CCc3cc4c(c(O)c3C1C2OC(C)=O)OCO4 [(S)-1-hydroxy-13-O-acetyl-N-methylcanadine]
conversion as substrate by CYP82X2 (CYP82X2): showed no activity
conversion as substrate by CYP82X1 (CYP82X1): converting (S)-1-hydroxy-13-O-acetyl-N-methylcanadine (m/z 428) to (S)-1,8-dihydroxy-13-O-acetyl-N-methylcanadine

COc1ccc2c(c1OC)C[N+]1(C)CCc3cc4c(c(O)c3C1C2)OCO4 [(S)-1-hydroxy-N-methylcanadine]
conversion as substrate by CYP82X2 (CYP82X2): yielding (S)-1,13-dihydroxy-N-methylcanadine
conversion as substrate by CYP82X1 (CYP82X1): 4-O-demethylmacrantaldehyde

COc1ccc2c(c1OC)C[N+]1(C)CCc3cc4c(cc3C1C2)OCO4 [(S)—N-methylcanadine]
conversion as substrate by CYP82Y1 (CYP82Y1): yielding 1-hydroxy-N-methylcanadine

C[N@@+]12CCc3cc4c(cc3[C@@H]1Cc1ccc3c(c1C2)OCO3)OCO4 [N-methylstylopine, reference compound]
conversion as substrate by CYP82Y1 (CYP82Y1): give rise to 1-hydroxy-N-methylstylopine

NC(=O)c1ccc[n+]([C@@H]2O[C@H](COP(=O)([O-])OP(=O)(O)OC[C@H]3O[C@@H](n4cnc5c(N)ncnc54)[C@H](OP(=O)(O)O)[C@@H]3O)[C@@H](O)[C@H]2O)c1 [NADP^+]
Km (NOS): 1250 µM

NC(=O)c1ccc[n+]([C@@H]2O[C@H](COP(=O)([O-])OP(=O)(O)OC[C@H]3O[C@@H](n4cnc5c(N)ncnc54)[C@H](O)[C@@H]3O)[C@@H](O)[C@H]2O)c1 [NAD^+]
Km (NOS): 33.1 µM

COc1ccc2c3c1O[C@H]1[C@@H](O)C=C[C@H]4[C@@H](C2)N(C)CC[C@@]341 [codeine]
acceptance as substrate / conversion by NOS (NOS): none were accepted by NOS

COc1ccc2c3c1O[C@H]1C(=O)C=C[C@H]4[C@@H](C2)N(C)CC[C@]314 [codeinone]
acceptance as substrate / conversion by NOS (NOS): none were accepted by NOS

COc1ccc2c(c1OC)C(O)OC2C1c2c(cc3c(c2OC)OCO3)CCN1C (stereo not drawn) [narcotine hemiacetal]
affinity of NOS for the alkaloid substrate and corresponding catalytic efficiency (NOS; in the presence of NAD^+ compared with NADP^+ as the cofactor): significantly higher
acceptance as substrate / conversion by NOS (NOS): able to oxidize the hydroxyl group on the hemiacetal ring

COc1ccc2c(c1OC)C(O)O[C@@H]2[C@H]1c2c(cc3c(c2O)OCO3)CCN1C (stereo partly drawn) [narcotoline hemiacetal]
acceptance as substrate / conversion by NOS (NOS): yielded a new compound consistent with narcotoline

COC1=C[C@]23CCN(C)[C@H](Cc4ccc(OC)c(O)c42)C3=CC1=O [salutaridine]
acceptance as substrate / conversion by NOS (NOS): none were accepted by NOS

c1cc2c(c3c1C[C@H]1c4cc5c(cc4CCN1C3)OCO5)OCO2 [stylopine]
acceptance as substrate / conversion by NOS (NOS): none were accepted by NOS
